Source: PubChem BioAssay AID2060333 (Molecular Pharmacology Branch, DTP, NCI, 2025)

Test system: 845751-090-R-J2-PDC tumor spheroid viability
Assay: Anticancer human tumor 845751-090-R-J2-PDC patient-derived head and neck squamous carcinoma cell line growth inhibition [IpAb]
Details: spheroids with HUVEC and MSC; for IC50: curve of first compound; for viability, T/C: stronger effect = lower value
How it was run: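 Combinations with ipatasertib or abemaciclib were tested on tumour spheroids holding HUVEC (25%) and MSC (15%) alongside 60% malignant cells. Top concentration was at or near clinical Cmax (10 microM if undefined), descending in half-log steps.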

[1] = second compound 0.01 µM, first compound 0.0316 µM
[2] = second compound 0.01 µM, first compound 0.1 µM
[3] = second compound 0.0316 µM, first compound 0.0316 µM
[4] = second compound 0.0316 µM, first compound 0.1 µM
[5] = second compound 0.1 µM, first compound 0.0316 µM
[6] = second compound 0.1 µM, first compound 0.1 µM
[7] = second compound 0.316 µM, first compound 0.0316 µM
[8] = second compound 0.316 µM, first compound 0.1 µM
[9] = second compound 1 µM, first compound 0.0316 µM
[10] = second compound 1 µM, first compound 0.1 µM
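Also: spheroids exposed to compounds for 7 days before readout.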
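For viability, T/C in this document: CTG3D luminescence normalised so that 100% = DMSO vehicle control.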

`Cn1ncc(Cl)c1-c1cc(C(=O)NC(CN)Cc2cccc(F)c2)sc1Cl` (stereo not given) + CCN1CCN(Cc2ccc(Nc3ncc(F)c(-c4cc(F)c5nc(C)n(C(C)C)c5c4)n3)nc2)CC1 showed an IC50 (second compound 0.01 µM) of 178 nM, an IC50 (second compound 0.0316 µM) of 94.7 nM and an IC50 (second compound 0.1 µM) of 160 nM. It also gave an IC50 (second compound 0.316 µM) of 170 nM, an IC50 (second compound 1 µM) of 401 nM and a viability, T/C [1] of 97.8%. The viability, T/C [2] was 58%, the viability, T/C (second compound 0.01 µM, first compound 0.316 µM) was 34% and the viability, T/C (second compound 0.01 µM, first compound 1 µM) was 32.3%. The viability, T/C (second compound 0.01 µM, first compound 3.16 µM) was 8.93%, the viability, T/C (second compound 0.01 µM, first compound 10 µM) was 0.28% and the viability, T/C [3] was 90.9%. The viability, T/C [4] was 38.1%, the viability, T/C (second compound 0.0316 µM, first compound 0.316 µM) was 30.7% and the viability, T/C (second compound 0.0316 µM, first compound 1 µM) was 28.1%. It also gave a viability, T/C (second compound 0.0316 µM, first compound 3.16 µM) of 8.85%, a viability, T/C (second compound 0.0316 µM, first compound 10 µM) of 0.59% and a viability, T/C [5] of 86.3%. It also gave a viability, T/C [6] of 56.7%, a viability, T/C (second compound 0.1 µM, first compound 0.316 µM) of 34.1% and a viability, T/C (second compound 0.1 µM, first compound 1 µM) of 29.2%. It also gave a viability, T/C (second compound 0.1 µM, first compound 3.16 µM) of 6.19%, a viability, T/C (second compound 0.1 µM, first compound 10 µM) of 0.25% and a viability, T/C [7] of 63.4%. For the same molecule, the viability, T/C [8] was 72%, the viability, T/C (second compound 0.316 µM, first compound 0.316 µM) was 26.7% and the viability, T/C (second compound 0.316 µM, first compound 1 µM) was 25.8%. For the same molecule, the viability, T/C (second compound 0.316 µM, first compound 3.16 µM) was 4.76%, the viability, T/C (second compound 0.316 µM, first compound 10 µM) was 0.45% and the viability, T/C [9] was 64.3%. For the same molecule, the viability, T/C [10] was 75.1%, the viability, T/C (second compound 1 µM, first compound 0.316 µM) was 53.1% and the viability, T/C (second compound 1 µM, first compound 1 µM) was 27.4%. The viability, T/C (second compound 1 µM, first compound 3.16 µM) was 3.89% and the viability, T/C (second compound 1 µM, first compound 10 µM) was 0.61%.
`Cn1ncnc1[C@H]1c2n[nH]c(=O)c3cc(F)cc(c23)N[C@@H]1c1ccc(F)cc1` + CCN1CCN(Cc2ccc(Nc3ncc(F)c(-c4cc(F)c5nc(C)n(C(C)C)c5c4)n3)nc2)CC1 gave an IC50 (second compound 0.01 µM) of over 100 nM, an IC50 (second compound 0.0316 µM) of 73.1 nM and an IC50 (second compound 0.1 µM) of over 100 nM. It also gave an IC50 (second compound 0.316 µM) of 85.4 nM, an IC50 (second compound 1 µM) of 19.6 nM and a viability, T/C (second compound 0.01 µM, first compound 0.000316 µM) of 71.6%. It also gave a viability, T/C (second compound 0.01 µM, first compound 0.001 µM) of 94%, a viability, T/C (second compound 0.01 µM, first compound 0.00316 µM) of 91.8% and a viability, T/C (second compound 0.01 µM, first compound 0.01 µM) of 83.1%. It also gave a viability, T/C [1] of 92.1%, a viability, T/C [2] of 70.9% and a viability, T/C (second compound 0.0316 µM, first compound 0.000316 µM) of 74.7%. It also gave a viability, T/C (second compound 0.0316 µM, first compound 0.001 µM) of 81.8%, a viability, T/C (second compound 0.0316 µM, first compound 0.00316 µM) of 69.7% and a viability, T/C (second compound 0.0316 µM, first compound 0.01 µM) of 78.8%. The viability, T/C [3] was 63.5%, the viability, T/C [4] was 45% and the viability, T/C (second compound 0.1 µM, first compound 0.000316 µM) was 71.9%. The viability, T/C (second compound 0.1 µM, first compound 0.001 µM) was 66.3%, the viability, T/C (second compound 0.1 µM, first compound 0.00316 µM) was 71.3% and the viability, T/C (second compound 0.1 µM, first compound 0.01 µM) was 69.7%. The viability, T/C [5] was 75.7%, the viability, T/C [6] was 59.9% and the viability, T/C (second compound 0.316 µM, first compound 0.000316 µM) was 63.6%. For the same molecule, the viability, T/C (second compound 0.316 µM, first compound 0.001 µM) was 69.4%, the viability, T/C (second compound 0.316 µM, first compound 0.00316 µM) was 72.8% and the viability, T/C (second compound 0.316 µM, first compound 0.01 µM) was 55%. For the same molecule, the viability, T/C [7] was 57.8%, the viability, T/C [8] was 49.3% and the viability, T/C (second compound 1 µM, first compound 0.000316 µM) was 58.8%. It also gave a viability, T/C (second compound 1 µM, first compound 0.001 µM) of 84.5%, a viability, T/C (second compound 1 µM, first compound 0.00316 µM) of 57.7% and a viability, T/C (second compound 1 µM, first compound 0.01 µM) of 57.1%. For the same molecule, the viability, T/C [9] was 46.4% and the viability, T/C [10] was 37.1%.
